Here are results for 19 molecules from PubChem BioAssay (NCI).

Among the test systems are A549 NSCLC; HCC-2998 colon; KM12 colon; PC-3 prostate; SF-295 CNS; SF-539 CNS; SK-MEL-5 melanoma; SK-OV-3 ovarian; T-47D breast; UACC-62 melanoma.
Test in all cases: inhibition of tumour cell growth, NCI panel, 48 h

Where “and” joins values, the source holds several entries; their conditions need not be identical. Identical values can stand only once.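 Where inhibition never reached the appropriate level, the endpoint shown equals the highest concentration tested. Otherwise, values were interpolated linearly from a five-concentration, 48-hour dose response in 96-well plates. At the GI50, growth is halved. The concentration for full growth arrest is given as TGI.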 Bounds are passed on as bounds.

Consider `C\C(=N/N=C1/C(=C\N(C)C)C(=O)NC(=O)N1C)c1ccc(Cl)cc1`, for which the TGI with A549 NSCLC, in the experiment on HCC-2998 colon, with KM12 colon, in the experiment on PC-3 prostate, in the experiment with SF-295 CNS and in the experiment on SF-539 CNS was greater than 100 µM in each case. Further, the TGI in the experiment with SK-MEL-5 melanoma, with SK-OV-3 ovarian, in the experiment on T-47D breast and with UACC-62 melanoma was greater than 100 µM throughout.

Regarding `COc1cc(/C=C/C=C2\CC/C(=C\C=C\c3ccc(O)c(OC)c3)C2=O)ccc1O`, the TGI with A549 NSCLC, in the experiment on HCC-2998 colon, in the experiment with KM12 colon, in the experiment on PC-3 prostate, in the experiment on SF-295 CNS and in the experiment on SF-539 CNS was greater than 100 µM throughout. The TGI in the experiment on SK-MEL-5 melanoma, in the experiment on SK-OV-3 ovarian, in the experiment on T-47D breast and in the experiment on UACC-62 melanoma was greater than 100 µM each time.

With `COc1ccc(CN2C3CC2CN(c2ccc(-c4cc(OCC(C)(C)O)cn5ncc(C#N)c45)cn2)C3)cn1`, the GI50 in the experiment on A549 NSCLC is 6.27 µM; in the experiment on HCC-2998 colon, 93.7 µM; with KM12 colon, greater than 100 µM; in the experiment on PC-3 prostate it was 16.3 µM; with SF-295 CNS, 5.27 µM; in the experiment on SF-539 CNS it was 2.61 µM. Moreover, the GI50 in the experiment with SK-MEL-5 melanoma is greater than 100 µM; with SK-OV-3 ovarian, 5.64 µM; in the experiment on T-47D breast, 9.02 µM; in the experiment with UACC-62 melanoma it was greater than 100 µM. In addition, the TGI is greater than 100 µM in the experiment on A549 NSCLC; greater than 100 µM with HCC-2998 colon; greater than 100 µM in the experiment on KM12 colon; greater than 100 µM in the experiment with PC-3 prostate; greater than 100 µM in the experiment with SF-295 CNS; 8.61 µM with SF-539 CNS. The TGI in the experiment with SK-MEL-5 melanoma, in the experiment on SK-OV-3 ovarian, in the experiment on T-47D breast and with UACC-62 melanoma was greater than 100 µM in each case.

On to `C[n+]1c(-c2ccc(/C=C/C=N\NC(=O)c3ccc(C(=O)N/N=C\C=C\c4ccc(-c5cn6ccccc6[n+]5C)cc4)cc3)cc2)cn2ccccc21`, for which the TGI in the experiment on A549 NSCLC is greater than 100 µM; in the experiment on HCC-2998 colon it was greater than 100 µM; with KM12 colon, greater than 57.5 µM; in the experiment on PC-3 prostate, greater than 100 µM; in the experiment with SF-295 CNS, greater than 100 µM; in the experiment on SF-539 CNS, greater than 100 µM. Moreover, the TGI in the experiment on SK-MEL-5 melanoma was greater than 100 µM; in the experiment with SK-OV-3 ovarian it was greater than 100 µM; with T-47D breast, greater than 80.2 µM; in the experiment with UACC-62 melanoma, greater than 100 µM.

On to `C#CCN(Cc1ccc2nc(OC)c(OC)nc2c1)c1cc(OC)c(OC)c(OC)c1`, for which the TGI with A549 NSCLC was greater than 89.6 µM; in the experiment on HCC-2998 colon it was greater than 100 µM; in the experiment with KM12 colon it was 54.9 µM; with PC-3 prostate, greater than 91.5 µM; in the experiment on SF-295 CNS, greater than 100 µM; with SF-539 CNS it was 43.6 µM. Also, the TGI was 23.1 µM in the experiment with SK-MEL-5 melanoma, greater than 100 µM with SK-OV-3 ovarian, greater than 100 µM in the experiment on T-47D breast and greater than 97.2 µM in the experiment on UACC-62 melanoma.

Consider `CC(C)(C)c1cc(C(=O)/C=C/c2ccc3c(c2)OCO3)cc(C(C)(C)C)c1O`, for which the TGI in the experiment on A549 NSCLC was greater than 86.6 µM; in the experiment on HCC-2998 colon it was 3.74 µM; with KM12 colon, 22.7 µM; in the experiment on PC-3 prostate it was 21.8 µM; with SF-295 CNS it was greater than 31.2 µM; with SF-539 CNS, 20 µM. The TGI in the experiment with SK-MEL-5 melanoma is 16.6 µM; with SK-OV-3 ovarian it was greater than 100 µM; in the experiment with T-47D breast it was 23.8 µM; in the experiment with UACC-62 melanoma it was greater than 45.5 µM.

With `NC(=O)N/N=C1\CC2C3CC4C2C4C13` (stereo not drawn), the TGI in the experiment on A549 NSCLC, in the experiment on HCC-2998 colon, with KM12 colon, in the experiment with PC-3 prostate, with SF-295 CNS and with SF-539 CNS was greater than 100 µM in each case. The TGI with SK-MEL-5 melanoma, with SK-OV-3 ovarian, in the experiment on T-47D breast and in the experiment on UACC-62 melanoma was greater than 100 µM in each case.

Turning to `CC(=O)c1ccc2c(c1)CC1(C2)Cc2ccccc2C1=O` (stereo not drawn), the TGI in the experiment with A549 NSCLC, with HCC-2998 colon, in the experiment with KM12 colon, in the experiment with PC-3 prostate, with SF-295 CNS and with SF-539 CNS was greater than 100 µM each time. The TGI with SK-MEL-5 melanoma is 65.3 µM; in the experiment on SK-OV-3 ovarian it was greater than 100 µM; in the experiment on T-47D breast, greater than 100 µM; in the experiment on UACC-62 melanoma it was greater than 100 µM.

For `O=C1c2ccccc2NC(=S)[C@@H]2CCCN12`, the TGI in the experiment on A549 NSCLC, in the experiment on HCC-2998 colon, in the experiment with KM12 colon, in the experiment with PC-3 prostate, in the experiment with SF-295 CNS and in the experiment with SF-539 CNS was greater than 100 µM each time. Besides, the TGI with SK-MEL-5 melanoma, with SK-OV-3 ovarian, in the experiment on T-47D breast and in the experiment with UACC-62 melanoma was greater than 100 µM throughout.

On to `CC1(C)[C@H]2CC[C@@]13C(=O)N1C(=O)O[C@@H]([C@H]1Cl)C(Cl)(COCc1ccccc1)C(=O)OCCO[C@H]3C2` (stereo partly drawn), for which the TGI in the experiment with A549 NSCLC, with HCC-2998 colon, with KM12 colon, in the experiment with PC-3 prostate, with SF-295 CNS and in the experiment on SF-539 CNS was greater than 100 µM each time. The TGI in the experiment with SK-MEL-5 melanoma, in the experiment with SK-OV-3 ovarian, in the experiment on T-47D breast and in the experiment with UACC-62 melanoma was greater than 100 µM in each case.

Consider `COc1c(O)c2c(=O)cc(OC)c3c4c(OC)cc(=O)c5c(O)c(OC)c6c(c(c1C(C(C)O)C6C(C)O)c23)c54` (stereo not drawn), for which the TGI was 2.66 µM in the experiment on A549 NSCLC; 1.65 µM in the experiment with HCC-2998 colon; 3.43 µM with KM12 colon; 1.85 µM in the experiment with PC-3 prostate; 1.97 µM with SF-295 CNS; 2.11 µM in the experiment on SF-539 CNS. Moreover, the TGI in the experiment on SK-MEL-5 melanoma came out at 1.15 µM; in the experiment with SK-OV-3 ovarian it was 8.64 µM; in the experiment on T-47D breast, 8.33 µM; in the experiment on UACC-62 melanoma, 3.54 µM.

Regarding `O=c1cc(-c2ccccc2)oc2c(-c3cc(Cl)cc4c(=O)cc(-c5ccccc5)oc34)cc(Cl)cc12`, the TGI in the experiment with A549 NSCLC is greater than 100 µM; in the experiment on HCC-2998 colon, greater than 100 µM; with KM12 colon, greater than 100 µM; in the experiment with PC-3 prostate, greater than 100 µM; in the experiment with SF-295 CNS it was greater than 100 µM; with SF-539 CNS, 44.4 µM. In addition, the TGI in the experiment on SK-MEL-5 melanoma was determined as 32.8 µM; with SK-OV-3 ovarian, 85.2 µM; with T-47D breast, 75.6 µM; in the experiment with UACC-62 melanoma, 48.4 µM.

As to `COC(=O)C1=Nc2c(C)nn(-c3ccccc3)c2N=C(c2ccccc2)C1`, the TGI in the experiment on A549 NSCLC, in the experiment with HCC-2998 colon, with KM12 colon, in the experiment with PC-3 prostate, with SF-295 CNS and in the experiment on SF-539 CNS was greater than 10 µM throughout. The TGI in the experiment on SK-MEL-5 melanoma, in the experiment on SK-OV-3 ovarian, with T-47D breast and in the experiment on UACC-62 melanoma was greater than 10 µM in each case.

For `O=C(Nc1noc(-c2ccccc2)n1)c1ccccc1CNc1noc(-c2ccccc2)n1`, the TGI with A549 NSCLC, with HCC-2998 colon, with KM12 colon, with PC-3 prostate, in the experiment on SF-295 CNS and with SF-539 CNS was greater than 100 µM each time. In addition, the TGI in the experiment on SK-MEL-5 melanoma, in the experiment with SK-OV-3 ovarian, in the experiment on T-47D breast and in the experiment on UACC-62 melanoma was greater than 100 µM in each case.

Take `CNC(=O)CCCNC(=O)CCCC(=O)N(C)C`: the TGI in the experiment on A549 NSCLC, in the experiment with HCC-2998 colon, in the experiment with KM12 colon, with PC-3 prostate, in the experiment with SF-295 CNS and with SF-539 CNS was greater than 100 µM throughout. Besides, the TGI in the experiment with SK-MEL-5 melanoma, in the experiment on SK-OV-3 ovarian, in the experiment with T-47D breast and with UACC-62 melanoma was greater than 100 µM in each case.

Take `O=[N+]([O-])c1ccc2c(c1)C1=NN(c3ccccc3)C(c3ccccc3Br)C1CCC2` (stereo not drawn): the TGI with A549 NSCLC, with HCC-2998 colon, in the experiment on KM12 colon, with PC-3 prostate, with SF-295 CNS and with SF-539 CNS was greater than 50 µM in each case. For the same molecule, the TGI in the experiment with SK-MEL-5 melanoma was greater than 50 µM; in the experiment on SK-OV-3 ovarian it was greater than 50 µM; in the experiment with T-47D breast, 47.3 µM; in the experiment on UACC-62 melanoma it was 34.4 µM.

Turning to `CCOC(=O)c1cn2c(n1)sc1cc(Cl)cc(Cl)c12`, the TGI in the experiment with A549 NSCLC, in the experiment with HCC-2998 colon, with KM12 colon, with PC-3 prostate, with SF-295 CNS and in the experiment with SF-539 CNS was greater than 100 µM each time. Besides, the TGI with SK-MEL-5 melanoma, in the experiment on SK-OV-3 ovarian, in the experiment with T-47D breast and in the experiment on UACC-62 melanoma was greater than 100 µM in each case.

Turning to `C=C(CN(C)C)C(=O)c1ccccc1[N+](=O)[O-]`, the GI50 with A549 NSCLC was 22.2 µM; in the experiment on HCC-2998 colon, 15.3 µM; with KM12 colon, 15.6 µM; with SF-295 CNS it was 17.7 µM; in the experiment with SF-539 CNS it was 18.6 µM; in the experiment on SK-MEL-5 melanoma it was 16.9 µM. The GI50 was 5.68 µM with T-47D breast and 13.1 µM in the experiment with UACC-62 melanoma. For the same molecule, the TGI was > 70.5 µM and 41.1 µM in the experiment on A549 NSCLC; > 56.5 µM and 29.2 µM in the experiment with HCC-2998 colon; 46.1 µM and 37.5 µM in the experiment with KM12 colon; 31.3 µM and 13.5 µM in the experiment with PC-3 prostate; 50.7 µM and 32.9 µM in the experiment with SF-295 CNS; 71.4 µM and 40.4 µM with SF-539 CNS. For the same molecule, the TGI in the experiment on SK-MEL-5 melanoma is 33.4 µM and 39.6 µM; in the experiment with SK-OV-3 ovarian it was greater than 86.8 µM; in the experiment with T-47D breast it was 18.6 µM and 28.6 µM; in the experiment on UACC-62 melanoma, 32.9 µM and 31.1 µM.

On to `COC(=O)[C@H](Cc1ccccc1)NC(=O)CCCCCCC(=O)NO`, for which the TGI was greater than 100 µM in the experiment on A549 NSCLC; 42.5 µM in the experiment with HCC-2998 colon; greater than 100 µM with KM12 colon; 38.2 µM with PC-3 prostate; 44.6 µM in the experiment on SF-295 CNS; greater than 100 µM in the experiment with SF-539 CNS. The TGI in the experiment on SK-MEL-5 melanoma amounted to 28.6 µM; with SK-OV-3 ovarian it was 52.3 µM; in the experiment on T-47D breast it was 8.88 µM; with UACC-62 melanoma it was 46.8 µM.
